In US11161845B2, “Pyrrolopyridine-aniline compounds for treatment of dermal disorders” (Nflection Therapeutics, Inc., priority 2017, dated 2021):

Assays:
[1] = molecular target: T1, MEK1 (Homo sapiens, UniProt Q02750); experiment: MEK inhibition assay, Biological Example 1a (33P-ATP, P81 filter-binding); conditions: read-out: Assay 1: biochemical MEK IC50
T1 construct: N-terminal His-tagged recombinant human full length protein; His (N); purchased Invitrogen PV3303; host or cells: insect cells
Experimental: MEK1 inhibitory activity of compounds were tested using the following procedure. […] Activated in vitro by RAF1. MW=49.2 kDa, GenBank Accession No. NP_002746. • Substrate: 5 μM ERK2 (K52R), • Kinase-dead mutant, (GenBank Accession No. NM_0011949), aa2-358 with N-terminal His6 tag, MW=43.63 kDa, expressed in E. coli.
The substrate was prepared in freshly prepared Reaction Buffer. The kinase was delivered into the substrate solution and gently mixed. Test compounds were delivered in 100% DMSO into the kinase reaction mixture by Acoustic technology (Echo550; nanoliter range), and incubated for 20 min at room temperature. ^33P-ATP was delivered into the reaction mixture to initiate the reaction. The reaction mixture was incubated for 2 hours at room temperature. Kinase activity was detected by P81 filter-binding method.

[2] = test system: A375 cells; experiment: A375 (BRAF) GI50 cell-based assay (Cell Titer-Glo); conditions: Homo sapiens, A-375; 72 hours; read-out: Assay 2: A375 (BRAF) GI50
Experimental: (§1) Alternatively, the following procedure can be used to measure cell-based activity. Test compounds were dissolved in DMSO in 10 mM stock. Cell Titer-Glo® 2.0 Luminescent cell viability assay reagent was purchased from Promega (Madison, Wis.). A375 and HCT116 cell lines were purchased from American Type Culture Collection (Manassas, Va.). For A375 cells, cell culture media was DMEM+10% FBS. For HCT116 cells, cell culture media was McCoy's 5A+10% FBS. All media were supplemented with 100 μg/mL of penicillin, and 100 μg/mL of streptomycin. Cultures were maintained at 37° C. in a humidified atmosphere of 5% CO2 and 95% air.
(§2) Test compounds were diluted in DMSO solution with 10-dose and 3-fold dilutions in a source plate starting at 10 mM. 25 nL of each test compound was delivered from the source plate to each well of the 384-well cell culture plates (T=Final) by Echo 550. 25 μL of culture medium containing 2000 of A375 or HCT116 cells was added to each of the wells in duplicates of the cell culture plates (T=0 and T=Final). 25 μL of Cell Titer Glo 2.0 reagent was added to each well of cell culture plate (T=0). The contents were mixed on an orbital shaker for 2 min and incubated at room temperature for 15 min to stabilize luminescent signal. Luminescence was recorded by Envision 2104 Multilabel Reader (PerkinElmer, Santa Clara, Calif.). The number of viable cells in culture was determined based on quantitation of the ATP present in each culture well. The cells in cell culture plate (T=Final) were incubated with the compounds at 37° C., 5% CO2 for 72 hours. 25 μL of Cell Titer Glo 2.0 reagent was added to each well. The contents were mixed on an orbital shaker for 2 min and incubated at room temperature for 15 min to stabilize luminescent signal. Luminescence was recorded by Envision 2104 Multilabel Reader (PerkinElmer, Santa Clara, Calif.). The number of viable cells in culture was determined based on quantitation of the ATP present in each culture well. The G150 curves were plotted using the GraphPad Prism 4 program based on a sigmoidal dose-response equation Y=Bottom+(Top−Bottom)/(1+10^((Log EC50−X)*HillSlope)). All parameters in the equation were calculated by GraphPad Prism 4 program. […] Accordingly, GI50 is the value of 10^X, where X was calculated by the Curve Fitting Equation when Y=50 using Excel.

[3] = test system: HCT116 cells; experiment: HCT116 (Kras) GI50 cell-based assay (Cell Titer-Glo); conditions: Homo sapiens, HCT-116; 72 hours; read-out: Assay 3: HCT116 (Kras) GI50
Experimental: as §1, §2

[4] = Compound levels in neck/back skin (LCMS), in vivo mouse model; design: species or system mice; conditions: for concentration at 1 h / concentration at 2 h: male, C57BL/6J, mouse, neck/back skin; for concentration at 1 h: 1 h after final application; for concentration at 2 h: 2 h after final application; for Compound Levels in Neck/Back Skin: pre-dose (16 h)
Experimental: Week 4 (Experiment end): Skin and blood were collected right before the last morning dose (N=3), 1 hour (N=3 mice), and 2 hours (N=3 mice) after final application; Blood draw: Plasma compound levels (LCMS); Skin biopsy: formalin fixed for histology and p-ERK staining, flash frozen for Western analysis and skin compound levels (LCMS)
Skin biopsy and GI tract sampling: Skin was wiped down with 100% ethanol and a 1 cm^2 biopsy was obtained from compound application site each mouse at the 25 day end of experiment (except as noted below). The skin was biopsied prior to final dose from 3 mice, 1 hour after last compound application from 3 mice, 2 hours after last compound application from 3 mice. Half of the specimen were immediately flash frozen for LCMS analysis and Western Blot Analysis. Half of the specimen was fixed for 24 hours in 10% formalin and then transferred to ethanol for immunohistochemistry. Gastrointestinal tract was also formalin fixed overnight then transferred to 70% ETOH for storage.
Compound level analysis: Liquid chromatography with mass spectrometry method (LCMS) was used to detect compound levels in the skin and plasma. Tissues were preprocessed prior to LCMS as follows. Tissues were minced and incubated with collagenase and then finally homogenized using the stainless steel beads prior to LCMS analysis. Calibration curves and a QC test were run with each assay.

[5] = test system: p-ERK in human cutaneous neurofibroma (cNF) explants; experiment: Human cutaneous neurofibroma explant protocol, p-ERK suppression; format: cell-based
Text: Study Objectives: The primary objective was to assess the efficacy of a topically-formulated compound described herein in suppressing p-ERK, a downstream biomarker of RAS/MAPK signaling in neurofibroma explants.
Primary dermal neurofibromas or cutaneous neurofibromas were obtained from patients with clinical or genetic diagnoses of NFL. […] Specimens were identified under the direction of the Principal Investigator and placed in cell proliferation media (DMEM/F12 containing penicillin/streptomycin (0.1%); fungizone (40 μg/mL); B27 (without vitamin A).
Specimens were identified under the direction of the Principal Investigator
Specimens were chopped into 2 mm fragments and placed in 24-well plates containing cell proliferation media (DMEM/F12 containing penicillin/streptomycin (0.1%); fungizone (40 μg/mL); B27 (without vitamin A) and submerged in media with drug. For topical gel application, samples were placed in 96 well plates with epidermal surface exposed to air.
The gel formulation was 1% hydroxypropyl cellulose in DMSO/PEG 400 1:1 (v/v). Harvested tissue was bisected and with half snap frozen and half fixed in 10% formalin and paraffin embedded for further analysis.
Samples were harvested at 4 hours with half snap frozen in liquid nitrogen and half fixed in 10% formalin and paraffin embedded for histologic analysis.
Western Blot analysis: For immunoblotting, total skin biopies were lysed in lysis buffer and run on Western blots. Antibodies used for immunoblotting included rabbit anti-phospho-p44/42 MAPK (1:3000, Cell Signaling) and rabbit anti-p44/42 MAPK (1:3000, Cell Signaling), rabbit anti-phospho-Mek1/2 (1:3000, Cell Signaling), mouse anti-actin (1:5000, Sigma-Aldrich), donkey anti-mouse IgG conjugated to horseradish peroxidase (HRP; 1:40,000, Amersham Biosciences) and goat anti-rabbit IgG conjugated HRP (1:40,000, Jackson ImmunoResearch).
Immunohistochemistry: Immunohistochemistry was performed on 5 pm paraffin sections. Antigen retrieval with enzyme treatment (1:1000) using standard protocols. Antibodies used were rabbit p-ERK (Cell Signaling, 4307S, 1:100). Bond Polymer Refine anti-rabbit HRP Detection (Leica Biosystems) was used according to manufacturer's protocol. Sections were then counterstained with hematoxylin, dehydrated and film coverslipped using a TissueTek-Prisma and Coverslipper (Sakura).
Data Analysis: Semi-quantative Western blot was used to assess differences in p-ERK in samples treated with a compound described herein compared to vehicle control.

T1 sequence (Q02750 whole entry): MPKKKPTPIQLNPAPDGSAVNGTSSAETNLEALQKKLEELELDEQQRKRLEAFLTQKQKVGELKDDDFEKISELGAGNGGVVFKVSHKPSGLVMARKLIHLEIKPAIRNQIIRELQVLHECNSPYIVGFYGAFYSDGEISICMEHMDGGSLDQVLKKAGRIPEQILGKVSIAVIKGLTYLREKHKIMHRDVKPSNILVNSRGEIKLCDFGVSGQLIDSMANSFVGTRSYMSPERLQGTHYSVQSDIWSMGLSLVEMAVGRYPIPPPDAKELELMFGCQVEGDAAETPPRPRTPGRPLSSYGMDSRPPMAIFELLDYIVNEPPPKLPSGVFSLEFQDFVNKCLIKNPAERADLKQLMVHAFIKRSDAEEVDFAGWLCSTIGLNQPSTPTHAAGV

Cn1c(Nc2ccc(I)cc2F)c(C(=O)NOCCO)c2cccnc21 [Example 2, 2-((2-Fluoro-4-iodophenyl)amino)—N-(2-hydroxyethoxy)-1-methyl-1H-pyrrolo[2,3-b]pyridine-3-carboxamide]
IC50 [1]: 246 nM
GI50 [2]: 63 nM
GI50 [3]: 196 nM
concentration at 1 h ([4]; topical 0.1%): 14 µg/mL
concentration at 2 h ([4]; topical 0.1%): 4.88 µg/mL
concentration at 1 h ([4]; topical 0.5%): 289 µg/mL
concentration at 2 h ([4]; topical 0.5%): 81.6 µg/mL
concentration at 1 h ([4]; topical 1%): 683 µg/mL
concentration at 2 h ([4]; topical 1%): 378 µg/mL
Compound Levels in Neck/Back Skin ([4]; topical 0.1%): 5.62 µg/mL
Compound Levels in Neck/Back Skin ([4]; topical 0.5%): 49.17 µg/mL
Compound Levels in Neck/Back Skin ([4]; topical 1%): 14.73 µg/mL
suppression of p-ERK ([5]; FIG. 2, 500 nM, explant submerged in media, 4 hours): suppression of p-ERK
dose-dependent suppression of p-ERK ([5]; FIG. 3, explant submerged in media, 4 hours): dose-dependent suppression of p-ERK
p-ERK after application of a topical gel ([5]; FIG. 4, gel 1% hydroxypropyl cellulose in DMSO/PEG 400 1:1, 4 hours): p-ERK was suppressed
suppression of pERK ([5]; FIGS. 1a and 1b, explant submerged in media, 4 hours): suppression of pERK
